Laboratory results from US5955440A, “Macrolide LHRH antagonists” (Abbott Laboratories, priority 1998, dated 1999).

target: T1, LHRH rat pituitary receptor (Rattus norvegicus, UniProt P30969); experiment: LHRH rat pituitary receptor binding (pKI); settings: negative logarithm of the equilibrium dissociation constants, Table 1
T1 construct: from tissue; host or cells: rat pituitary
T1 sequence (P30969 1-327): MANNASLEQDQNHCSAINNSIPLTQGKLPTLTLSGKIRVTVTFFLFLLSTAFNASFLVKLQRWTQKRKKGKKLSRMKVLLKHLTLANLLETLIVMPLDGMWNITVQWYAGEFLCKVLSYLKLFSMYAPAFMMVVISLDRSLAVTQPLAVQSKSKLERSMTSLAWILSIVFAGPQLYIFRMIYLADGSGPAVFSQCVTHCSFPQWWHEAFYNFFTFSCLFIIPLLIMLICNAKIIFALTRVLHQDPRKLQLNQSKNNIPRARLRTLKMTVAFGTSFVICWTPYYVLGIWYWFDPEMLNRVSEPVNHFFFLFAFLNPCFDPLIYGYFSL
Method: Representative compounds of the present invention were evaluated in in vitro tests for LHRH rat pituitary receptor binding (pKI) and for LH inhibition from rat pituitary cells for antagonist potency (pA2). The tests employed the methods detailed in F. Haviv, et al. J. Med. Chem., 32: 2340-2344 (1989). The receptor binding affinity (pKI) is the negative logarithm of the equilibrium dissociation constants.

receptor binding affinity (pKI)	SMILES
8.46	CC[C@H]1OC(=O)[C@H](C)[C@@H](O[C@H]2C[C@@](C)(OC)[C@@H](O)[C@H](C)O2)[C@H](C)[C@@H](O[C@@H]2O[C@H](C)C[C@H](N(C)CCCCc3ccncc3)[C@H]2O)[C@](C)(OC)C[C@@H](C)C(=O)[C@H](C)[C@H]2N(CCc3ccc(F)c(Cl)c3)C(=O)O[C@]12C [Example 83, 3'-N-Desmethyl-3'-N-[4-(4-pyridyl)butyl]-11-deoxy-11-[carboxy-(3-chloro-4-fluorophenethylamino)]-6-O-methyl-erythromycin A 11,12-(cyclic carbamate)]

same assay, conditions: negative logarithm of the equilibrium dissociation constants, Table 1, read-out: receptor binding affinity (pKI) (converted)

SMILES	Ki [nM]
CC[C@H]1OC(=O)[C@H](C)[C@@H](O[C@H]2C[C@@](C)(OC)[C@@H](O)[C@H](C)O2)[C@H](C)[C@@H](O[C@@H]2O[C@H](C)C[C@H](N(C)CCCc3cccnc3)[C@H]2O)[C@](C)(OC)C[C@@H](C)C(=O)[C@H](C)[C@H]2N(CCc3ccc(F)c(Cl)c3)C(=O)O[C@]12C [Example 80, 3'-N-Desmethyl-3'-N-[3-(3-pyridyl)propyl]-11-deoxy-11-[carboxy-(3-chloro-4-fluorophenethylamino)]-6-O-methyl-erythromycin A 11,12-(cyclic carbamate)]	3.98
CC[C@H]1OC(=O)[C@H](C)[C@@H](O[C@H]2C[C@@](C)(OC)[C@@H](O)[C@H](C)O2)[C@H](C)[C@@H](O[C@@H]2O[C@H](C)C[C@H](N(C)CCCc3ccccn3)[C@H]2O)[C@](C)(OC)C[C@@H](C)C(=O)[C@H](C)[C@H]2N(CCc3ccc(F)c(Cl)c3)C(=O)O[C@]12C [Example 82, 3'-N-Desmethyl-3'-N-[3-(2-pyridyl)propyl]-11-deoxy-11-[carboxy-(3-chloro-4-fluorophenethylamino)]-6-O-methyl-erythromycin A 11,12-(cyclic carbamate)]	2.29
CC[C@H]1OC(=O)[C@H](C)[C@@H](O[C@H]2C[C@@](C)(OC)[C@@H](O)[C@H](C)O2)[C@H](C)[C@@H](O[C@@H]2O[C@H](C)C[C@H](N(C)CCCCc3cccc(C)n3)[C@H]2O)[C@](C)(OC)C[C@@H](C)C(=O)[C@H](C)[C@H]2N(CCc3ccc(F)c(Cl)c3)C(=O)O[C@]12C [Example 84, 3'-N-Desmethyl-3'-N-[4-(6-methyl)-2-pyridyl]butyl-11-deoxy-11-[carboxy-(3-chloro-4-fluorophenethylamino)]-6-O-methyl-erythromycin A 11,12-(cyclic carbamate)]	7.08
CC[C@H]1OC(=O)[C@H](C)[C@@H](O[C@H]2C[C@@](C)(OC)[C@@H](O)[C@H](C)O2)[C@H](C)[C@@H](O[C@@H]2O[C@H](C)C[C@H](N(C)C(C)CCc3ccc(O)cc3)[C@H]2O)[C@](C)(OC)C[C@@H](C)C(=O)[C@H](C)[C@H]2N(CCc3ccc(Cl)c(Cl)c3)C(=O)O[C@]12C (stereo partly shown) [Example 85, 3'-N-Desmethyl-3'-N-(1-methyl)[3-(4-hydroxy)phenyl]propyl-11-deoxy-11-[carboxy-(3,4-dichlorophenethylamino)]-6-O-methyl-erythromycin A 11,12-(cyclic carbamate)]	5.89
CC[C@H]1OC(=O)[C@H](C)[C@@H](O[C@H]2C[C@@](C)(OC)[C@@H](O)[C@H](C)O2)[C@H](C)[C@@H](O[C@@H]2O[C@H](C)C[C@H](N(C)C(C)CCc3ccc(O)cc3)[C@H]2O)[C@](C)(OC)C[C@@H](C)C(=O)[C@H](C)[C@H]2N(CCc3ccc(F)c(Cl)c3)C(=O)O[C@]12C (stereo partly shown) [Example 86, 3'-N-Desmethyl-3'-N-(1-methyl)[3-(4-hydroxy)phenyl]propyl-11-deoxy-11-[carboxy-(3-chloro-4fluorophenethylamino)]-6-O-methyl-erythromycin A 11,12-(cyclic carbamate)]	1.78
CC[C@H]1OC(=O)[C@H](C)[C@@H](O[C@H]2C[C@@](C)(OC)[C@@H](O)[C@H](C)O2)[C@H](C)[C@@H](O[C@@H]2O[C@H](C)C[C@H](N(C)CCCc3cccc(C)n3)[C@H]2O)[C@](C)(OC)C[C@@H](C)C(=O)[C@H](C)[C@H]2N(CCc3ccc(F)c(Cl)c3)C(=O)O[C@]12C [Example 87, 3'-N-Desmethyl-3'-N-[3-(6-methyl-2-pyridyl)propyl]-11-deoxy-11-[carboxy-(3-chloro-4-fluorophenethylamino)]-6-O-methyl-erythromycin A 11,12-(cyclic carbamate)]	2.24
CC[C@H]1OC(=O)[C@H](C)[C@@H](O[C@H]2C[C@@](C)(OC)[C@@H](O)[C@H](C)O2)[C@H](C)[C@@H](O[C@@H]2O[C@H](C)C[C@H](N(C)CCCc3ccc(C)cn3)[C@H]2O)[C@](C)(OC)C[C@@H](C)C(=O)[C@H](C)[C@H]2N(CCc3ccc(F)c(Cl)c3)C(=O)O[C@]12C [Example 88, 3'-N-Desmethyl-3'-N-[3-(5-methyl-2-pyridyl)propyl]-11-deoxy-11[carboxy-(3-chloro-4-fluorophenethylamino)]-6-O-methyl-erythromycin A 11,12-(cyclic carbamate)]	2.09
CC[C@H]1OC(=O)[C@H](C)[C@@H](O[C@H]2C[C@@](C)(OC)[C@@H](O)[C@H](C)O2)[C@H](C)[C@@H](O[C@@H]2O[C@H](C)C[C@H](N(C)CCc3ccccn3)[C@H]2O)[C@](C)(OC)C[C@@H](C)C(=O)[C@H](C)[C@H]2N(CCc3ccc(F)c(Cl)c3)C(=O)O[C@]12C [Example 90, 3'-N-Desmethyl-3'-N-(2-pyridyl)ethyl-11-deoxy-11-[carboxy-(3-chloro-4-fluorophenethylamino)]-6-O-methyl-erythromycin A 11,12-(cyclic carbamate)]	4.07
CC[C@H]1OC(=O)[C@H](C)[C@@H](O[C@H]2C[C@@](C)(OC)[C@@H](O)[C@H](C)O2)[C@H](C)[C@@H](O[C@@H]2O[C@H](C)C[C@H](N(C)CCC(C)SC)[C@H]2O)[C@](C)(OC)C[C@@H](C)C(=O)[C@H](C)[C@H]2N(CCc3ccc(Cl)c(Cl)c3)C(=O)O[C@]12C (stereo partly shown) [Example 93, 3'-N-Desmethyl-3'-N-[(3-methylthio)butyl]-11-deoxy-11-[carboxy-(3,4-dichlorophenethylamino)]-6-O-methyl-erythromycin A 11,12-(cyclic carbamate)]	5.01

Continued, values first:

Ki [nM]	SMILES
6.17	CC[C@H]1OC(=O)[C@H](C)[C@@H](O[C@H]2C[C@@](C)(OC)[C@@H](O)[C@H](C)O2)[C@H](C)[C@@H](O[C@@H]2O[C@H](C)C[C@H](N(C)CCCc3ccccn3)[C@H]2O)[C@](C)(OC)C[C@@H](C)C(=O)[C@H](C)[C@H]2N(CCc3ccc(Cl)c(Cl)c3)C(=O)O[C@]12C [Example 77, 3'-N-Desmethyl-3'-N-[3-(2-pyridyl)propyl]-11-deoxy-11-[carboxy-(3,4-dichlorophenethylamino)]-6-O-methyl-erythromycin A 11,12-(cyclic carbamate)]
7.94	CC[C@H]1OC(=O)[C@H](C)[C@@H](O[C@H]2C[C@@](C)(OC)[C@@H](O)[C@H](C)O2)[C@H](C)[C@@H](O[C@@H]2O[C@H](C)C[C@H](N(C)CCCCc3ccncc3)[C@H]2O)[C@](C)(OC)C[C@@H](C)C(=O)[C@H](C)[C@H]2N(CCc3ccc(Cl)c(Cl)c3)C(=O)O[C@]12C [Example 78, 3'-N-Desmethyl-3'-N-[4-(4-pyridyl)butyl]-11-deoxy-11-[carboxy-(3,4-dichlorophenethylamino)]-6-O-methyl-erythromycin A 11,12-(cyclic carbamate)]
4.37	CC[C@H]1OC(=O)[C@H](C)[C@@H](O[C@H]2C[C@@](C)(OC)[C@@H](O)[C@H](C)O2)[C@H](C)[C@@H](O[C@@H]2O[C@H](C)C[C@H](N(C)CCCc3ccncc3)[C@H]2O)[C@](C)(OC)C[C@@H](C)C(=O)[C@H](C)[C@H]2N(CCc3ccc(F)c(Cl)c3)C(=O)O[C@]12C [Example 81, 3'-N-Desmethyl-3'-N-[3-(4-pyridyl)propyl]-11-deoxy-11-[carboxy-(3-chloro-4-fluorophenethylamino)]-6-O-methyl-erythromycin A 11,12-(cyclic carbamate)]
4.17	CC[C@H]1OC(=O)[C@H](C)[C@@H](O[C@H]2C[C@@](C)(OC)[C@@H](O)[C@H](C)O2)[C@H](C)[C@@H](O[C@@H]2O[C@H](C)C[C@H](N(C)CCc3ccccn3)[C@H]2O)[C@](C)(OC)C[C@@H](C)C(=O)[C@H](C)[C@H]2N(CCc3ccc(Cl)c(Cl)c3)C(=O)O[C@]12C [Example 89, 3'-N-Desmethyl-3'-N-(2-pyridyl)ethyl-11-deoxy-11-[carboxy-(3,4-dichlorophenethylamino)]-6-O-methyl-erythromycin A 11,12-(cyclic carbamate)]
9.55	CC[C@H]1OC(=O)[C@H](C)[C@@H](O[C@H]2C[C@@](C)(OC)[C@@H](O)[C@H](C)O2)[C@H](C)[C@@H](O[C@@H]2O[C@H](C)C[C@H](N(C)Cc3ccc(O)cc3)[C@H]2O)[C@](C)(OC)C[C@@H](C)C(=O)[C@H](C)[C@H]2N(CCc3ccc(Cl)c(Cl)c3)C(=O)O[C@]12C [Example 91, 3'-N-Desmethyl-3'-N-(4-hydroxybenzyl)-11-deoxy-11-[carboxy-(3,4-dichlorophenethylamino)]-6-O-methyl-erythromycin A 11,12-(cyclic carbamate)]
6.31	CC[C@H]1OC(=O)[C@H](C)[C@@H](O[C@H]2C[C@@](C)(OC)[C@@H](O)[C@H](C)O2)[C@H](C)[C@@H](O[C@@H]2O[C@H](C)C[C@H](N(C)Cc3ccncc3)[C@H]2O)[C@](C)(OC)C[C@@H](C)C(=O)[C@H](C)[C@H]2N(CCc3ccc(Cl)c(Cl)c3)C(=O)O[C@]12C [Example 92, 3'-N-Desmethyl-3'-N-(4-pyridylmethyl)-11-deoxy-11-[carboxy-(3,4-dichlorophenethylamino)]-6-O-methyl-erythromycin A 11,12-(cyclic carbamate)]
